Experimental data reported in paper PMC3066269 (Bioorganic & medicinal chemistry, 2011).

Each compound was assayed against hAChE-induced aggregation of Aβ1–40 (Homo sapiens, UniProt P22303) (assay: hAChE-induced Aβ aggregation inhibition, thioflavin T fluorescence). Settings: 100 μM compound, 50 μM Aβ1–40, 24 h, ThT; NA = Not active.
Sequence of hAChE-induced aggregation of Aβ1–40 (P22303 32-614): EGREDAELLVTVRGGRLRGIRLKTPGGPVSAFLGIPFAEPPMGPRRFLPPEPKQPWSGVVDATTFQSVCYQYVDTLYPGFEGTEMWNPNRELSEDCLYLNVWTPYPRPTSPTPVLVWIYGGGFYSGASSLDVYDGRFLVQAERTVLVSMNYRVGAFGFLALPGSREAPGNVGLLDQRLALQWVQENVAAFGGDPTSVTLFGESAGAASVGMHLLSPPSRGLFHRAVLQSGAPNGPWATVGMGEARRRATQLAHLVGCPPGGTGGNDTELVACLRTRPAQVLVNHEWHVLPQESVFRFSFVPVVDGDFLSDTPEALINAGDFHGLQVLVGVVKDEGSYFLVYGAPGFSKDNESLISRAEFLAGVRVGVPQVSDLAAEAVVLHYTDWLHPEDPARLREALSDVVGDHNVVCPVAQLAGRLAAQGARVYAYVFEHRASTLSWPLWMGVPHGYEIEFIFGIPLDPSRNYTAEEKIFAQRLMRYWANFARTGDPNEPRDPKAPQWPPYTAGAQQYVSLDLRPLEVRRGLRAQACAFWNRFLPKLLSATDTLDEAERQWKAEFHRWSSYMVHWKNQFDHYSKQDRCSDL
Type: biochemical
In the case of `c1ccc(CNc2ccnc(N3CCCC3)n2)cc1` [7a, N-Benzyl-2-(pyrrolidin-1-yl)pyrimidin-4-amine], the “Inhibition of hAChE-induced aggregation of Aβ1–40 at 100 μM ± SEM” value (from here on “Inhibition … at 100 μM ± SEM”) is reported as “did not provide anti-aggregation activity”.
For `c1ccc(CNc2ccnc(N3CCSCC3)n2)cc1` [7c, N-Benzyl-2-thiomorpholinopyrimidin-4-amine], the “Inhibition … at 100 μM ± SEM” value was “either weak or no anti-aggregation activity”.
For `c1ccc(CCNc2ccnc(N3CCSCC3)n2)cc1` [8c, N-Phenethyl-2-thiomorpholinopyrimidin-4-amine], the “Inhibition … at 100 μM ± SEM” value was “either weak or no anti-aggregation activity”.
